# Legend:
# Format in all cases: in vivo
# Settings in all cases: alone, 14 d
# [1] = tested on: Stellaria media (L.) Vill. (common chickweed); assay: Postemergent herbicidal activity, greenhouse foliar application, STEME
# Procedure: (§1) Evaluation of Postemergent Herbicidal Activity. Seeds or nutlets of the desired test plant species were planted in Sun Gro Metro-Mix® 360 planting mixture, which typically has a pH of 6.0 to 6.8 and an organic matter content of about 30 percent, in plastic pots with a surface area of 64 square centimeters (cm^2). When required to ensure good germination and healthy plants, a fungicide treatment and/or other chemical or physical treatment was applied. The plants were grown for 7-21 days (d) in a greenhouse with an approximate 15 hour (h) photoperiod which was maintained at about 23-29° C. during the day and 22-28° C. during the night. Nutrients and water were added on a regular basis and supplemental lighting was provided with overhead metal halide 1000-Watt lamps as necessary. The plants were employed for testing when they reached the first or second true leaf stage.
# (§2) A weighed amount, determined by the highest rate to be tested, of each test compound was placed in a 25 milliliter (mL) glass vial and was dissolved in 4 mL of a 97:3 volume per volume (v/v) mixture of acetone and dimethyl sulfoxide (DMSO) to obtain concentrated stock solutions. […] The concentrated stock solutions obtained were diluted with 20 mL of an aqueous mixture containing acetone, water, isopropyl alcohol, DMSO, Atplus 411F crop oil concentrate, and Triton® X-155 surfactant in a 48.5:39:10:1.5:1.0:0.02 v/v ratio to obtain spray solutions containing the highest application rates. Additional application rates were obtained by serial dilution of 12 mL of the high rate solution into a solution containing 2 mL of a 97:3 v/v mixture of acetone and DMSO and 10 mL of an aqueous mixture containing acetone, water, isopropyl alcohol, DMSO, Atplus 411F crop oil concentrate, and Triton X-155 surfactant in a 48.5:39:10:1.5:1.0:0.02 v/v ratio to obtain ½×, ¼×, ⅛× and 1/16× rates of the high rate. Compound requirements are based upon a 12 mL application volume at a rate of 187 liters per hectare (L/ha). Formulated compounds were applied to the plant material with an overhead Mandel track sprayer equipped with 8002E nozzles calibrated to deliver 187 L/ha over an application area of 0.503 square meters (m^2) at a spray height of 18 inches ([…]) above the average plant canopy height. Control plants were sprayed in the same manner with the solvent blank.
# (§3) Treatments consisted of the methyl ester of 4-amino-3-chloro-6-(4-chloro-2-fluoro-3-methoxyphenyl)pyridine-2-carboxylic acid (Cmpd 1) as technical grade material and cloransulam-methyl (FirstRate®) and diclosulam (Strongarm®) alone and in combination. The form of compound of formula (I) was applied on an acid equivalent basis, and cloransulam-methyl and diclosulam were applied on an active ingredient basis.
# (§4) The treated plants and control plants were placed in a greenhouse as described above and watered by subirrigation to prevent wash-off of the test compounds. After 14 d, the condition of the test plants as compared with that of the untreated plants was determined visually and scored on a scale of 0 to 100 percent where 0 corresponds to no injury and 100 corresponds to complete kill.
# (§5) Results in Tables 1 and 2 are greenhouse trial results for foliar applied compositions. The values reported are percent (%) control visually rated. Colby's equation was used to determine the herbicidal effects expected from the mixtures (Colby, S. R. Calculation of the synergistic and antagonistic response of herbicide combinations. Weeds 1967, 15, 20-22.). More specifically, the following equation was used to calculate the expected activity of mixtures containing two active ingredients, A and B:
# (§6) Expected=A+B−(A×B/100) • A=observed efficacy of active ingredient A at the same concentration as used in the mixture; • B=observed efficacy of active ingredient B at the same concentration as used in the mixture.
# [2] = tested on: Sorghum vulgare (common sorghum); assay: Postemergent herbicidal activity, greenhouse foliar application, SORVU
# Procedure: as §1, §2, §3, §4, §5, §6
# [3] = tested on: Ipomoea hederacea (L.) Jacq. (ivyleaf momingglory); assay: Postemergent herbicidal activity, greenhouse foliar application, IPOHE
# Procedure: as §1, §2, §3, §4, §5, §6
# [4] = tested on: Viola tricolor (L.) (wild pansy); assay: Postemergent herbicidal activity, greenhouse foliar application, VIOTR
# Procedure: as §1, §2, §3, §4, §5, §6
# [5] = tested on: Amaranthus retroflexus L. (redroot pigweed); assay: Postemergent herbicidal activity, greenhouse foliar application, AMARE
# Procedure: as §1, §2, §3, §4, §5, §6
# [6] = tested on: Setaria faberi Herrm. (giant foxtail); assay: Postemergent herbicidal activity, greenhouse foliar application, SETFA
# Procedure: as §1, §2, §3, §4, §5, §6
# [7] = tested on: Chenopodium album L. (common lambsquarters); assay: Postemergent herbicidal activity, greenhouse foliar application, CHEAL
# Procedure: as §1, §2, §3, §4, §5, §6
# [8] = tested on: Cyperus esculentus L. (yellow nutsedge); assay: Postemergent herbicidal activity, greenhouse foliar application, CYPES
# Procedure: as §1, §2, §3, §4, §5, §6
# [9] = tested on: Brassica napus (winter oilseed rape); assay: Postemergent herbicidal activity, greenhouse foliar application, BRSNW
# Procedure: as §1, §2, §3, §4, §5, §6
compound,measurement,setting,value
"COC(=O)c1nc(-c2ccc(Cl)c(OC)c2F)cc(N)c1Cl [Cmpd 1, methyl 4-amino-3-chloro-6-(4-chloro-2-fluoro-3-methoxyphenyl)pyridine-2-carboxylate]","STEME Obs, percent (%) control rated visually",[1]; 1.25 g ae/ha,30%
same,"STEME Obs, percent (%) control rated visually",[1]; 2.5 g ae/ha,20%
same,"STEME Obs, percent (%) control rated visually",[1]; 5 g ae/ha,40%
same,"SORVU Obs, percent (%) control rated visually",[2]; 1.25 g ae/ha,0%
same,"SORVU Obs, percent (%) control rated visually",[2]; 2.5 g ae/ha,0%
same,"SORVU Obs, percent (%) control rated visually",[2]; 5 g ae/ha,0%
same,"IPOHE Obs, percent (%) control rated visually",[3]; 1.25 g ae/ha,10%
same,"IPOHE Obs, percent (%) control rated visually",[3]; 2.5 g ae/ha,20%
same,"IPOHE Obs, percent (%) control rated visually",[3]; 5 g ae/ha,20%
same,"VIOTR Obs, percent (%) control rated visually",[4]; 1.25 g ae/ha,10%
same,"VIOTR Obs, percent (%) control rated visually",[4]; 2.5 g ae/ha,10%
same,"VIOTR Obs, percent (%) control rated visually",[4]; 5 g ae/ha,30%
same,"AMARE Obs, percent (%) control rated visually",[5]; 1.25 g ae/ha,50%
same,"AMARE Obs, percent (%) control rated visually",[5]; 2.5 g ae/ha,60%
same,"AMARE Obs, percent (%) control rated visually",[5]; 5 g ae/ha,90%
same,"SETFA Obs, percent (%) control rated visually",[6]; 1.25 g ae/ha,0%
same,"SETFA Obs, percent (%) control rated visually",[6]; 2.5 g ae/ha,0%
same,"SETFA Obs, percent (%) control rated visually",[6]; 5 g ae/ha,30%
same,"CHEAL Obs, percent (%) control rated visually",[7]; 1.25 g ae/ha,70%
same,"CHEAL Obs, percent (%) control rated visually",[7]; 2.5 g ae/ha,80%
same,"CHEAL Obs, percent (%) control rated visually",[7]; 5 g ae/ha,93%
same,"CYPES Obs, percent (%) control rated visually",[8]; 1.25 g ae/ha,50%
same,"CYPES Obs, percent (%) control rated visually",[8]; 2.5 g ae/ha,90%
same,"CYPES Obs, percent (%) control rated visually",[8]; 5 g ae/ha,93%
same,"BRSNW Obs, percent (%) control rated visually",[9]; 1.25 g ae/ha,0%
same,"BRSNW Obs, percent (%) control rated visually",[9]; 2.5 g ae/ha,5%
same,"BRSNW Obs, percent (%) control rated visually",[9]; 5 g ae/ha,20%
"CCOc1nc(F)cc2nc(S(=O)(=O)Nc3c(Cl)cccc3C(=O)OC)nn12 [cloransulam-methyl, methyl 3-chloro-2-[[(5-ethoxy-7-fluoro[1,2,4]triazolo[1,5-c]pyrimidin-2-yl)sulfonyl]amino]benzoate]","STEME Obs, percent (%) control rated visually",[1]; 4.375 g ai/ha,0%
same,"STEME Obs, percent (%) control rated visually",[1]; 8.75 g ai/ha,0%
same,"STEME Obs, percent (%) control rated visually",[1]; 17.5 g ai/ha,0%
same,"SORVU Obs, percent (%) control rated visually",[2]; 4.375 g ai/ha,0%
same,"SORVU Obs, percent (%) control rated visually",[2]; 8.75 g ai/ha,10%
same,"SORVU Obs, percent (%) control rated visually",[2]; 17.5 g ai/ha,20%
same,"IPOHE Obs, percent (%) control rated visually",[3]; 4.375 g ai/ha,80%
same,"IPOHE Obs, percent (%) control rated visually",[3]; 8.75 g ai/ha,85%
same,"IPOHE Obs, percent (%) control rated visually",[3]; 17.5 g ai/ha,85%
same,"VIOTR Obs, percent (%) control rated visually",[4]; 4.375 g ai/ha,10%
same,"VIOTR Obs, percent (%) control rated visually",[4]; 8.75 g ai/ha,50%
same,"VIOTR Obs, percent (%) control rated visually",[4]; 17.5 g ai/ha,65%
same,"AMARE Obs, percent (%) control rated visually",[5]; 4.375 g ai/ha,0%
same,"AMARE Obs, percent (%) control rated visually",[5]; 8.75 g ai/ha,10%
same,"AMARE Obs, percent (%) control rated visually",[5]; 17.5 g ai/ha,20%
same,"SETFA Obs, percent (%) control rated visually",[6]; 4.375 g ai/ha,0%
same,"SETFA Obs, percent (%) control rated visually",[6]; 8.75 g ai/ha,0%
same,"SETFA Obs, percent (%) control rated visually",[6]; 17.5 g ai/ha,0%
same,"CHEAL Obs, percent (%) control rated visually",[7]; 4.375 g ai/ha,0%
same,"CHEAL Obs, percent (%) control rated visually",[7]; 8.75 g ai/ha,10%
same,"CHEAL Obs, percent (%) control rated visually",[7]; 17.5 g ai/ha,20%
same,"BRSNW Obs, percent (%) control rated visually",[9]; 4.375 g ai/ha,90%
same,"BRSNW Obs, percent (%) control rated visually",[9]; 8.75 g ai/ha,93%
same,"BRSNW Obs, percent (%) control rated visually",[9]; 17.5 g ai/ha,95%
"CCOc1nc(F)cc2nc(S(=O)(=O)Nc3c(Cl)cccc3Cl)nn12 [diclosulam, N-(2,6-dichlorophenyl)-5-ethoxy-7-fluoro[1,2,4]triazolo[1,5-c]pyrimidine-2-sulfonamide]","STEME Obs, percent (%) control rated visually",[1]; 4.375 g ai/ha,0%
same,"STEME Obs, percent (%) control rated visually",[1]; 8.75 g ai/ha,0%
same,"STEME Obs, percent (%) control rated visually",[1]; 17.5 g ai/ha,0%
same,"SORVU Obs, percent (%) control rated visually",[2]; 4.375 g ai/ha,0%
same,"SORVU Obs, percent (%) control rated visually",[2]; 8.75 g ai/ha,0%
same,"SORVU Obs, percent (%) control rated visually",[2]; 17.5 g ai/ha,0%
same,"IPOHE Obs, percent (%) control rated visually",[3]; 4.375 g ai/ha,75%
same,"IPOHE Obs, percent (%) control rated visually",[3]; 8.75 g ai/ha,80%
same,"IPOHE Obs, percent (%) control rated visually",[3]; 17.5 g ai/ha,85%
same,"VIOTR Obs, percent (%) control rated visually",[4]; 4.375 g ai/ha,10%
same,"VIOTR Obs, percent (%) control rated visually",[4]; 8.75 g ai/ha,50%
same,"VIOTR Obs, percent (%) control rated visually",[4]; 17.5 g ai/ha,70%
same,"AMARE Obs, percent (%) control rated visually",[5]; 4.375 g ai/ha,10%
same,"AMARE Obs, percent (%) control rated visually",[5]; 8.75 g ai/ha,20%
same,"AMARE Obs, percent (%) control rated visually",[5]; 17.5 g ai/ha,30%
same,"SETFA Obs, percent (%) control rated visually",[6]; 4.375 g ai/ha,0%
same,"SETFA Obs, percent (%) control rated visually",[6]; 8.75 g ai/ha,0%
same,"SETFA Obs, percent (%) control rated visually",[6]; 17.5 g ai/ha,0%
same,"CHEAL Obs, percent (%) control rated visually",[7]; 4.375 g ai/ha,0%
same,"CHEAL Obs, percent (%) control rated visually",[7]; 8.75 g ai/ha,10%
same,"CHEAL Obs, percent (%) control rated visually",[7]; 17.5 g ai/ha,40%
same,"CYPES Obs, percent (%) control rated visually",[8]; 4.375 g ai/ha,60%
same,"CYPES Obs, percent (%) control rated visually",[8]; 8.75 g ai/ha,60%
same,"CYPES Obs, percent (%) control rated visually",[8]; 17.5 g ai/ha,70%
same,"BRSNW Obs, percent (%) control rated visually",[9]; 4.375 g ai/ha,80%
same,"BRSNW Obs, percent (%) control rated visually",[9]; 8.75 g ai/ha,85%
same,"BRSNW Obs, percent (%) control rated visually",[9]; 17.5 g ai/ha,90%

# Reference: patent publication US20140213447A1, “HERBICIDAL COMPOSITIONS COMPRISING 4-AMINO-3-CHLORO-6-(4-CHLORO-2-FLUORO-3-METHOXYPHENYL) PYRIDINE-2-CARBOXYLIC ACID OR A DERIVATIVE THEREOF AND CERTAIN TRIAZOLOPYRIMIDINE SULFONAMIDES” (DOW AGROSCIENCES LLC, priority 2013, published 2014)
